We go through 40 compounds from patent US11530206B2, “Phenylaminopyrimidine amide autophagy inhibitors and methods of use thereof” (Deciphera Pharmaceuticals, LLC, priority 2019, dated 2022).

Structures are written as SMILES.

For one experiment, the target named is T1, ULK1 kinase (Homo sapiens, UniProt O75385, E37A/K38A).
T1 construct: purchased Beryllium
T1 sequence (O75385 1-283 E37A/K38A): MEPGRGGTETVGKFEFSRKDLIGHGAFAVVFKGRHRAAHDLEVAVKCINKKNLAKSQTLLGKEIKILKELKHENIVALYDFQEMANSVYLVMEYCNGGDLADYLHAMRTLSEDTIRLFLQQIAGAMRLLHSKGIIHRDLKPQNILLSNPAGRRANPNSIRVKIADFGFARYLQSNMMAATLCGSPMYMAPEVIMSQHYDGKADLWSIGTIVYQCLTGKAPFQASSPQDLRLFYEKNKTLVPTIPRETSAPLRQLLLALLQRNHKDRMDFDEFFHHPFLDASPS
Put plainly: Biochemical assay for ULK1.3 (coupled pyruvate kinase/lactate dehydrogenase assay, peptide substrate). To be noted: 0.1 nM ULK1 (residues 1-283), 1 mM ATP. Here is the method:
Biochemical Assay for ULK1.3 (SEQ. ID NO: 2)
Inhibition of ULK1 was measured by adding serial diluted test compound (final assay concentration of 1% DMSO). A decrease in absorption at 340 nm was monitored continuously for 6 hours at 30° C. on a multi-mode microplate reader (BioTek). The reaction rate was calculated using the 2-3 h time frame. The reaction rate at each concentration of compound was converted to percent inhibition using controls (i.e. reaction with no test compound and reaction with a known inhibitor) and IC50 values were calculated using software routines in Prism (GraphPad software).

The test system of experiment [1] is ULK kinase. Put plainly: pATG13 levels of mutant KRas A549 cells after treatment with ULK inhibitors in combination with trametinib (ELISA). It is filed as cell-based, human. To be noted: A549 (KRAS mutant) lung cancer cells, 250 nM trametinib, overnight, pS318-ATG13. As for the experimental part:
Cellular Inhibition of ULK Kinase Substrate ATG13 Protein pATG13 Levels of Mutant KRas A549 Cells after Treatment with ULK Inhibitors in Combination with Trametinib
(§1) A549 (KRAS mutant) human lung cancer cells (6,000 cells/well) were added to a 384-well tissue-culture treated plate in 50 μL of pre-warmed DMEM medium supplemented with 10% characterized fetal bovine serum (Invitrogen, Carlsbad, Calif.), 100 units/mL penicillin G, and 100 μg/mL streptomycin and allowed to grow overnight at 37° C., 5% CO2, and 95% humidity. The following day, 10 μL of media containing trametinib or DMSO as a control was added to wells. […] A dose response of a test compound (0.6 μL per well) was added. DMSO (0.6 μL) was added to control wells. The plate was briefly shaken to mix wells and then incubated at 37° C. overnight. The next day, the media was aspirated and cells were washed with Dulbecco's Phosphate Buffered Saline (Gibco). Cells were lysed using MPER lysis buffer (Pierce, Rockford, Ill.) containing Halt Phosphatase and Protease Inhibitors (Pierce, Rockford, Ill.) and Phosphatase inhibitor cocktail 2 (Sigma, St. Louis, Mo.) at 4° C. for 10 minutes with shaking.
(§2) Plate wells were washed with ELISA wash buffer. Cell lysate was added to wells and incubated at room temperature for 2 hours. Plate wells were washed with ELISA wash buffer. […] Plate wells were washed with ELISA wash buffer. […] Plate wells were washed with ELISA wash buffer. […] The reaction was stopped with 2N Sulfuric Acid. The plate was analyzed at on a plate reader measuring absorbance at 450 nm and 540 nm (background). Signal was calculated by first subtracting the background absorbance at 540 nm from the absorbance at 450 nm for each well. Next, the background corrected absorbance at 450 nm from blank wells was subtracted from test wells. Data was compared to control wells to determine % ATG13 phosphorylation. GraphPad Prism was used to calculate IC50 values.
In general terms: In an ELISA, binding on a coated surface is turned into a signal by an enzyme label.

In experiment [2] the test system is ULK kinase. In words: pATG13 levels of mutant KRas MiaPaCa-2 cells after treatment with ULK inhibitors in combination with trametinib (ELISA). The experiment is classed as cell-based, human. To be noted: MiaPaCa-2 pancreatic cancer cells, 250 nM trametinib, overnight, pS318-ATG13. Here is the method:
as §1, with “MiaPaCa-2” for “A549 (KRAS mutant)”, “pancreatic” for “lung”, “(10000” for “(6,000”, “G, 100 µg/mL streptomycin,” for “G,”, “2.5% Horse Serum” for “100 μg/mL streptomycin”
as §2

For the compound `CN1CCN(c2ccc(Nc3ncc(Br)c(NCCCN4CCOCCC4=O)n3)c(C3CC3)c2)CC1` [Example 81], the IC50 (as a rule, the point on the concentration scale where inhibition reaches its midpoint) lay in the range of 1 to 25 nM against ULK1 kinase, 100 to 300 nM with ULK kinase [1] and 10 to 100 nM with ULK kinase [2].
At ULK1 kinase, `CCc1cc(N2CC[C@@H](N(C)C)C2)ccc1Nc1ncc(C(F)(F)F)c(NCCCN2CCOCCC2=O)n1` [Example 144] displayed a 50% inhibitory concentration (IC50) of 1 to 25 nM.
On the same count and under the same terms, for `CN1CCN(c2ccc(Nc3cc(NCCCN4CCOCCC4=O)c(Cl)cn3)c(C3CC3)c2)CC1` [Example 104] the value was 100 to 500 nM; for `CN1CCN(c2ccc(Nc3cc(NCCCN4CCCCC4=O)c(C(F)(F)F)cn3)nc2)CC1` [Example 97, 1-(3-((2-((5-(4-methylpiperazin-1-yl)pyridin-2-yl)amino)-5-(trifluoromethyl)pyridin-4-yl)amino)propyl)piperidin-2-one], 100 to 500 nM.
Consider `CCc1cc(N2CCCN(C)CC2)ccc1Nc1ncc(C(F)(F)F)c(NCCCN2CCCCC2=O)n1` [Example 31], for which the 50% inhibitory concentration (IC50) against ULK1 kinase was in the range of 1 to 25 nM; with ULK kinase [1], 300 to 600 nM; in the experiment on ULK kinase [2], 100 to 300 nM.
In turn, `CCc1cc(N2CCN(C)CC2)ccc1Nc1ncc(C2CC2)c(NCCCN2CCOCCC2=O)n1` [Example 83] came in with a half-maximal inhibitory concentration (IC50) at ULK1 kinase of more than 500 nM.
Take `CCc1cc(N2CC3CCC(C2)N3C)ccc1Nc1ncc(C(F)(F)F)c(NCCCN2CC(C)(C)C2=O)n1` [Example 139]: at ULK1 kinase, the IC50 is more than 500 nM.
With `CCc1cc(N2CCN(C)CC2)ccc1Nc1ncc(Cl)c(NCCCN2CCOCCC2=O)n1` [Example 80], the IC50 is 25 to 100 nM against ULK1 kinase, more than 600 nM in the experiment on ULK kinase [1] and 100 to 300 nM in the experiment on ULK kinase [2].
For `CN1CCN(c2ccc(Nc3ncc(C(F)(F)F)c(NCCCN4CCCCCC4=O)n3)c(C3CC3)c2)CC1` [Example 38], at ULK1 kinase, the IC50 lay in the range of 1 to 25 nM.
With `CN1CCN(c2ccc(Nc3cc(NCCCN4CCCCC4=O)c(C(F)(F)F)cn3)cc2)CC1` [Example 103], the IC50 on ULK1 kinase was 1 to 25 nM; in the experiment on ULK kinase [1], 10 to 100 nM; in the experiment on ULK kinase [2] it was 10 to 100 nM.
On ULK1 kinase, `CCc1cc(C2CCN(C)C2)ccc1Nc1ncc(C(F)(F)F)c(NCCCN2CCOCCC2=O)n1` (stereo not shown) [Example 143] returned an IC50 of 1 to 25 nM.
The same measure, in the same setting: for `O=C1CCOCCN1CCCNc1nc(Nc2ccc(N3CCNCC3)cc2C2CC2)ncc1Cl` [Example 89] the value was 100 to 500 nM; for `CC(C)c1cc(N2CCN(C)CC2)ccc1Nc1ncc(Br)c(NCCCN2CCCCC2=O)n1` [Example 15], 25 to 100 nM.
The same measure, in the same setting: for `CCc1cc(N2CCN(C)CC2)ccc1Nc1ncc(C(F)(F)F)c(NCCCN2CC(C)(C)C2=O)n1` [Example 141] the value was 25 to 100 nM.
Turning to `CCc1cc(N2CC(CN(C)C)C2)ccc1Nc1ncc(C(F)(F)F)c(NCCCN2CCOCCC2=O)n1` [Example 152], the IC50 against ULK1 kinase lay within 1 to 25 nM.
On the same count and under the same terms, the result for `CCc1cc(N2CC3CCC(C2)N3C)ccc1Nc1ncc(C(F)(F)F)c(NCCCN2CCCOCC2=O)n1` [Example 138] reads 100 to 500 nM.
`CCc1cc(N2CCN(C)CC2)ncc1Nc1ncc(C(F)(F)F)c(NCCCN2CCOCCC2=O)n1` [Example 67]: the IC50 against ULK1 kinase lay in the range of 1 to 25 nM; in the experiment on ULK kinase [1] it was 100 to 300 nM; in the experiment with ULK kinase [2], 100 to 300 nM.
For `CN1CCN(c2ccc(Nc3cc(NCCCN4CCOCCC4=O)c(C(F)(F)F)cn3)cc2)CC1` [Example 110], the half-inhibitory concentration (IC50) against ULK1 kinase lay within 1 to 25 nM; with ULK kinase [1], 100 to 300 nM; in the experiment on ULK kinase [2] it was 10 to 100 nM.
Take `CCc1cc(N2CC3CCC(C2)N3C)ccc1Nc1ncc(C(F)(F)F)c(NCCCN2CCC(C)(C)OC2=O)n1` [Example 140]: the IC50 against ULK1 kinase is 100 to 500 nM.
`CN1CCN(c2ccc(Nc3ncc(C(F)(F)F)c(NCCCN4CCCOC4=O)n3)c(C(C)(C)O)c2)CC1` [Example 135] returned an IC50 against ULK1 kinase of 100 to 500 nM.
On to `CN1CCN(c2ccc(Nc3cc(NCCCN4CCOCCC4=O)c(C(F)(F)F)cn3)c(C3CC3)c2)CC1` [Example 101], for which the figures for the half-maximal inhibitory concentration (IC50) against ULK1 kinase, in the experiment on ULK kinase [1] and in the experiment with ULK kinase [2] were 1 to 25 nM, 300 to 600 nM and more than 600 nM, respectively.
In the case of `CN1CCN(c2ccc(Nc3cc(NCCCN4CCCCC4=O)c(C(F)(F)F)cn3)c(C3CC3)c2)CC1` [Example 94], the 50% inhibitory concentration (IC50) against ULK1 kinase lay in the range of 25 to 100 nM.
Take `CCc1cc(N2CCN(C)CC2)ccc1Nc1ncc(Br)c(NCCCN2CCCOC2=O)n1` [Example 44]: the half-inhibitory concentration (IC50) at ULK1 kinase was in the range of 1 to 25 nM; in the experiment with ULK kinase [1] it was 10 to 100 nM; in the experiment with ULK kinase [2], 10 to 100 nM.
As for `CCc1cc(N2CCN(C)CC2)ccc1Nc1ncc(C(F)(F)F)c(NCCCN2CCOCC(C)(C)C2=O)n1` [Example 142], on ULK1 kinase, the half-maximal inhibitory concentration (IC50) lay within 1 to 25 nM.
As for `CN1CCN(c2ccc(Nc3ncc(Br)c(NCCCN4CCCCC4=O)n3)c(C3CC3)c2)CC1` [Example 26], the IC50 at ULK1 kinase was 1 to 25 nM; in the experiment on ULK kinase [1] it was 100 to 300 nM; with ULK kinase [2], 10 to 100 nM.
In turn, `CN(C)C1CN(c2ccc(Nc3ncc(C(F)(F)F)c(NCCCN4CCOCCC4=O)n3)c(C3CC3)c2)C1` [Example 136] came in with an IC50 against ULK1 kinase of 1 to 25 nM.
On the same count and under the same terms, the result for `CCc1cc(N2CCN(C)CC2)ncc1Nc1ncc(C(F)(F)F)c(NCCCN2CCCOCC2=O)n1` [Example 53] reads 25 to 100 nM.
Still for that read-out and setting: for `CCc1cc(N2CCN(C)CC2)ccc1Nc1ncc(Cl)c(NCCCN2CCCOC2=O)n1` [Example 43] the value was 25 to 100 nM; for `CN(C)CC1CN(c2ccc(Nc3ncc(C(F)(F)F)c(NCCCN4CCCCC4=O)n3)c(C3CC3)c2)C1` [Example 151], 1 to 25 nM; for `CCc1cc(N2CCN3CCC[C@H]3C2)ccc1Nc1ncc(C(F)(F)F)c(NCCCN2CCCOC2=O)n1` [Example 121], 1 to 25 nM.
Still for that read-out and setting: the result for `CN1CCN(c2ccc(Nc3ncc(C(F)(F)F)c(NCCCN4CCOCCC4=O)n3)c(C(C)(C)O)c2)CC1` [Example 134] reads more than 500 nM.
As to `CN1CCCN(c2ccc(Nc3ncc(C(F)(F)F)c(NCCCN4CCCCC4=O)n3)c(C3CC3)c2)CC1` [Example 24], at ULK1 kinase, the IC50 fell in the range of 1 to 25 nM.
Consider `CCc1cc(N2CC[C@H](N(C)C)C2)ccc1Nc1ncc(C(F)(F)F)c(NCCCN2CCOCCC2=O)n1` [Example 145], for which the IC50 at ULK1 kinase is 1 to 25 nM.
Still for that read-out and setting: for `CC(C)c1cc(N2CCN(C)CC2)ccc1Nc1ncc(Br)c(NCCCN2CCCOCC2=O)n1` [Example 77] the value was 25 to 100 nM; for `CCc1cc(N2CCN(C)CC2)ncc1Nc1ncc(C(F)(F)F)c(NCCCN2CCCOC2=O)n1` [Example 128], 1 to 25 nM; for `CCc1cc(N2CCN(C)CC2)ccc1Nc1ncc(C2CC2)c(NCCCN2CCCOC2=O)n1` [Example 45], 100 to 500 nM.
Same read-out and setting: for `CCc1cc(C2CCN(C)CC2)ccc1Nc1ncc(C(F)(F)F)c(NCCCN2CCOCCC2=O)n1` [Example 146] the value was 25 to 100 nM; for `CCN1CCN(c2ccc(Nc3ncc(Cl)c(NCCCN4CCCCC4=O)n3)c(C(C)C)c2)CC1` [Example 29], 100 to 500 nM.
`CN1C2CCC1CN(c1ccc(Nc3ncc(C(F)(F)F)c(NCCCN4CCOCCC4=O)n3)c(C3CC3)c1)C2` [Example 133] came in with a half-maximal inhibitory concentration (IC50) against ULK1 kinase of 100 to 500 nM.
Still for that read-out and setting: for `CCc1cc(N2CCCN(C)CC2)ccc1Nc1ncc(C(F)(F)F)c(NCCCN2CCCOCC2=O)n1` [Example 63] the value was 25 to 100 nM.
